Results on three compounds are retold here after patent publication US12130282B2, “Universal fluorescence assay of high affinity ligand transport” (priority 2018, dated 2024).

In general, Kd refers to the constant that tells how readily two partners part at equilibrium.

Test [1] has as its system KpnFepA-FM (KpnFepA0027_T210C). Put plainly: Fluorescence quenching binding of ferric catecholates to E. coli OKN13/pKpnFepA-FM. Set-up: species or system K. pneumoniae. As to conditions: adsorption to KpnFepA. The source says:
(§1) Affinity determinations by spectroscopic analyses The analytical capabilities of the fluorescence spectroscopic determinations stood out when we compared the recognition of FeEnt and its glucosylated form, FeGEnt (also known as ferric salmochelin), by EcoFepA and KpnFepA. The ability of Gram (−) pathogens, including K. pneumoniae, to glucosylate enterobactin and transport FeGEnt enhances their invasiveness, in part because glucosylation impairs recognition of the iron complex by lipocalins. Additionally, whereas E. coli K12 contains a single chromosomal fepA locus that encodes its FeEnt transporter, pathogenic K. pneumoniae contain at least three fepA orthologs (chromosomal loci 1658, 4984; plasmid PII locus 0027). IroN of Salmonella typhimurium has a role in FeGEnt uptake; its closest ortholog in K. pneumoniae is plasmid-mediated fepA0027. […]
(§2) Fluorescence modifications of Cys-mutant proteins. […]
(§3) Fluorescence spectroscopy. We observed fluorophore-labeled cells in an SLM AMINCO 8100 fluorescence spectrometer, upgraded with an OLIS operating system and software (OLIS SpectralWorks, OLIS Inc., Bogart, GA), to control its shutters, polarizers and data collection. We also utilized an OLIS Clarity fluorescence spectrometer for fluorescence assays of ferric catecholate binding.

A further test addresses T1, EcoFepA-FM (Escherichia coli, UniProt P05825, A720C).
T1 construct: expressed in transfected cells; host or cells: E. coli OKN13 (ΔtonB, ΔfepA), low-copy plasmid pHSG575 derivative
Put plainly: Fluorescence quenching binding of ferric catecholates to E. coli OKN13/pEcoFepA-FM. As to conditions: summary of Table 2 for both KpnFepA-FM and EcoFepA-FM fluorescent sensors.
Text: as §1, §2, §3

Test [2] addresses LmoHbp2. As to conditions: read-out: Kd, isocalorimetric; cited from earlier work.
Test [3] concerns the target LmoHbp2. As to conditions: read-out: Kd, radioisotopic; cited from earlier work.
The target in a further test is LmoHbp2_S154C-CPM. Kind of test: Hemin titration of purified LmoHbp2-CPM, fluorescence quenching. It is filed as binding, Listeria monocytogenes. As to conditions: purified LmoHbp2-CPM 30 nM, 1-255 nM hemin, triplicate. The protocol: We substituted Cys for residue S154 in NEAT1 of LmoHbp2, expressed and purified the binding protein, and covalently modified it with coumarin maleimide (CPM). Introduction of Cys in NEAT-1 of LmoHbp2 allowed its modification by extrinsic fluorophores, transforming the purified binding protein into a sensitive sensor whose emissions inversely related to [Hn]. […] The experiment was performed in triplicate; the mean values, with standard deviations, are shown. […] When we mixed Hbp2-CPM with heterologous bacteria in solution, it reflected their hemin uptake. Addition of hemin at 300 s quenched LmoHbp2-CPM emissions, but fluorescence rebounded as bacteria {L. monocytogenes (Lmo; blue), B. subtilis (Bsu; gold), S. aureus (Sau; red), V. cholerae (Vch; green)} transported the porphyrin and depleted it from solution. […]
For fluorescence spectroscopic determinations of Gram (+) bacterial heme acquisition we used the FD sensor LmoHbp2_S154C-CPM. […] For measurements of Hn uptake by heterologous bacteria we suspended the LmoHbp2_S154C-CPM sensor protein at 30 nM in PBS+0.2% glucose in a 2 mL cuvette, added Hn to 15 nM after 300 s, and then added iron-starved bacterial cells at 600 s, to a final concentration of 5×10^7/mL, and monitored fluorescence for 2 h.

Test [4] relates to chromosomally expressed FepA in E. coli. As to conditions: cited from earlier work.
Another test deals with T2, EcoFepA (Escherichia coli, UniProt P05825).
T2 construct: expressed in transfected cells; host or cells: E. coli OKN3 (ΔfepA), plasmid pITS23 (pHSG575, ecofepA+)
T2 sequence (P05825 23-746): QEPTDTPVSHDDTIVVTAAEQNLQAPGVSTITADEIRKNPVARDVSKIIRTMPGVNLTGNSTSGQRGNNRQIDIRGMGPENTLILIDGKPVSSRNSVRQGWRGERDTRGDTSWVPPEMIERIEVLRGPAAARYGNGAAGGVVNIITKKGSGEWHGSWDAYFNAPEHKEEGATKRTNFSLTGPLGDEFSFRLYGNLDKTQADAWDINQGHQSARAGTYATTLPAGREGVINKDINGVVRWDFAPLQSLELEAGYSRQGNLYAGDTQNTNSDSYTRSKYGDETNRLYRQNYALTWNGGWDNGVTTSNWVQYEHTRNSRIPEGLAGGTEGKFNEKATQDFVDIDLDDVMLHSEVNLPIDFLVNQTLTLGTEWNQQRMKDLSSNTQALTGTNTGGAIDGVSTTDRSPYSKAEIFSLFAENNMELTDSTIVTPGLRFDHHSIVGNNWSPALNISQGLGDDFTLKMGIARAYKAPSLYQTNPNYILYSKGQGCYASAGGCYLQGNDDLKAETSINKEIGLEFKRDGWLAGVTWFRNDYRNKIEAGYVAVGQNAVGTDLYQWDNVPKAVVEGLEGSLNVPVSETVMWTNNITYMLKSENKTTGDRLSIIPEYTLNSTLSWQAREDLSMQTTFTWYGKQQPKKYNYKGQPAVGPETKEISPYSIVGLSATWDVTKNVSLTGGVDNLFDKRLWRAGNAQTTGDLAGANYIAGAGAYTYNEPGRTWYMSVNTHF
The conditions noted are these: read-out: Kd, previous determinations; cited from earlier work.

The test system of another test is K. pneumoniae Kp52.145. Kind of test: FD sensor assay of FeEnt uptake rate by test strain (sensor OKN13/pEcoFepA-FM). It is filed as cell-based. How it is done: FIG. 7. Uptake rates from FD assays. At t=60 s we added varying concentrations of FeEnt [(0.5 nM (green); 1 nM (yellow); 5 nM (orange); 10 nM (red)] to sensor strain OKN13/pEcoFepA-FM in the presence of test strain K. pneumoniae isolate Kp52.145. 10 nM FeEnt gave maximal quenching. For 1 and 5 nM FeEnt, at half-saturation (blue dashed line) we determined the slope of the time course (black dashed line) and the elapsed time (dashed red line). Either parameter estimated the transport rate of the test strain (see text).
Transport rates from spectroscopic analyses. The rate of fluorescence recovery in the spectroscopic system correlates to the rate of ligand depletion by bacterial transport, and comparisons of test strains in universal FD uptake assays reiterated this point. The various ESKAPE bacteria conferred fluorescence recovery at different rates (FIG. 3B). FeEnt binding at 100 s quenched the fluorescence of the FD sensor strain, E. coli OKN13/pEcoFepA-FM. […] But, the fluorescence of the E. coli strain reflected FeEnt uptake by other bacteria in the same solution: as they decreased [FeEnt] by cellular transport the intensity of OKN13/pEcoFepA-FM returned to initial levels (as described in FIG. 1B). The assay monitored FeEnt uptake by E. coli expressing chromosomal (Eco; cyan) or plasmid-mediated (Eco/pfepA+; blue) FepA, and ESKAPE species K. pneumoniae (Kpn; red), A. baumannii (Aba; gold), P. aeruginosa (Pae; green), E. cloacae (Ecl; magenta). […]
Species-specific fluorescence assay of FeEnt uptake: KpnFepA-FM. […] For species-specific ferric siderophore transport assays of Gram (−) bacteria we added an iron complex to 2×10^7 labeled cells in a quartz cuvette (final volume, 2 mL) with stirring at 37° C., and monitored the time course of fluorescence emissions at 520 nm. […] After addition of the ferric siderophore, we monitored the time-course of fluorescence emissions at 520 nm for 15-30 minutes, with stirring. […]

Values joined by “and” are separate entries in the source; they are usually repeats but may differ in a detail not shown here. Equal entries are not always repeated. Where two headings read alike, the source gives them in different places.

T1 sequence (P05825 23-746 A720C): as the sequence (P05825 23-746) above, with A698C counted along it

Regarding `O=C(N[C@H]1COC(=O)[C@@H](NC(=O)c2cc([C@@H]3O[C@H](CO)[C@@H](O)[C@H](O)[C@H]3O)cc(O)c2O)COC(=O)[C@@H](NC(=O)c2cc([C@@H]3O[C@H](CO)[C@@H](O)[C@H](O)[C@H]3O)cc(O)c2O)COC1=O)c1cccc(O)c1O.[Fe+3]` [FeGEnt, ferric salmochelin], in test [1], the “fold lower affinity than FeEnt” value was 20 fold. The same compound showed a Kd on EcoFepA-FM of 6 to 280 nM.

In the case of hemin, the Kd on LmoHbp2 [2] was 25 to 48 nM; at LmoHbp2 [3], 12 nM; at LmoHbp2_S154C-CPM, 12 ± 3.1 nM.

Regarding `O=C(N[C@H]1COC(=O)[C@@H](NC(=O)c2cccc([O-])c2[O-])COC(=O)[C@@H](NC(=O)c2cccc([O-])c2[O-])COC1=O)c1cccc([O-])c1[O-].[Fe+3]` [FeEnt, ferric enterobactin], the Vmax in test [4] is listed as 50-100 pMol/min/10^9 cells; in the test on K. pneumoniae Kp52.145 (K. pneumoniae Kp52.145, mean rate ÷ 0.8), “≈ 66 pMol/10^9 cells/min”. For the same compound, the Kd is ~0.38 nM and 0.4 nM on EcoFepA-FM; 0.2 to 0.5 nM on EcoFepA. For the same compound, in the test with K. pneumoniae Kp52.145 (10^7 cells/mL K. pneumoniae Kp52.145), the “time required to deplete 5 nM FeEnt to 0.38 nM (half-saturation)” value came to 520 s. For the same compound, the “mean uptake rate over the first 520 s” value in the test on K. pneumoniae Kp52.145 (10^7 cells/mL K. pneumoniae Kp52.145, 5 nM FeEnt) came to 53 pMol/10^9 cells/min.
